One data set concerns MOLM-13 cell line. Kind of data set: WST-1 cell viability assay, 24 hours treatment, MOLM-13. It counts as cell-based, human. Conditions: MOLM-13, 24 hours; for cytotoxicity / %-viability: 0.001-100 μM, WST-1; for cell survival dose/response curve in the mitochondria metabolism assay (WST-1): FIG. 1. On the procedure:
(§1) The cell lines HL60 and MOLM-13 were treated with the various compounds for 24 hours. The cell viability assay WST-1 was used to determine the cytotoxic effect and to generate the dose-response curves and IC50 values.
(§2) The two human cell lines HL60 and MOLM-13 reflect the aggressive blood cancer acute myeloid leukaemia (AML). These cell lines (obtained from the American Type Culture Collection, ATCC) were cultured in RPMI 1640, 2 mM L-Glutamine, 50 UmL^−1 penicillin/streptomycin (Sigma Aldrich) and 10% fetal bovine serum (Biowest) and incubated in humidified atmosphere at a temperature of 37° C. under 5% CO2. The cells (2×10^5 cells×mL^−1) were treated with various concentrations (0.001 μM→100 μM) of the compounds for a period of 24 hours. Metabolic cell activity (i.e. cell viability) was measured using the WST-1 cell proliferation agent (Roche) and read on a […] plate reader (Infinite 200 Pro, Tecan). Selected cell samples were analysed after nuclear staining with Hoechst to determine apoptotic nuclear fragmentation.
(In general: Tetrazolium dyes change colour on reduction, which living cells bring about.)

The subject of another data set is HL60 cell line. In words: WST-1 cell viability assay, 24 hours treatment, HL60. As to conditions: HL60, 24 hours; for cytotoxicity / %-viability: 0.001-100 μM, WST-1; for cell survival dose/response curve in the mitochondria metabolism assay (WST-1): FIG. 1. The format is cell-based, human. How it is done: as §1, §2

The results in this text go back to patent publication US20240299349A1, “TREATMENT OR PREVENTION OF LEUKAEMIA” (VESTLANDETS INNOVASJONSSELSKAP AS, priority 2019, published 2024).

By melting point is commonly meant the temperature, or range, at which the solid turns liquid.

As for `COc1c(C)c(OC)c([N+](=O)[O-])c(-c2ccccc2)c1O` [Compound 7, 3,5-dimethoxy-4-methyl-6-nitrobiphenyl-2-ol], the melting point was determined as 102.7 °C. In addition, in the data set on MOLM-13 cell line, the cytotoxicity / %-viability entry is reported as “minor decrease in %-viability” and the “cell survival dose/response curve in the mitochondria metabolism assay (WST-1)” value (“cell survival dose/response curve” below) is “more limited dose/response curves”. Also, in the data set on HL60 cell line, the cytotoxicity / %-viability entry was “minor decrease in %-viability” and the “cell survival dose/response curve” value is on record as “more limited dose/response curves”.

`COc1cccc(-c2c(O)c(OC)c(C)c(OC)c2[N+](=O)[O-])c1` [Compound 7a, 3,3′,5-trimethoxy-4-methyl-6-nitro-[1,1′-biphenyl]-2-ol]: the “cell survival dose/response curve” value in the data set with MOLM-13 cell line and in the data set on HL60 cell line was “rapid decrease in cell survival” throughout.

Regarding `COc1c(C)c(OC)c(O)c(-c2ccccc2)c1N` [Compound 8, 6-amino-3,5-dimethoxy-4-methyl-[1,1′-biphenyl]-2-ol], in the data set with MOLM-13 cell line, the cytotoxicity / %-viability result was “substantial drop in %-viability” and the “cell survival dose/response curve” value is recorded as “rapid decrease in cell survival”. Moreover, in the data set with HL60 cell line, the cytotoxicity / %-viability result is given as “substantial drop in %-viability” and the “cell survival dose/response curve” value is given as “rapid decrease in cell survival”.

In the case of `COc1cccc(-c2c(N)c(OC)c(C)c(OC)c2O)c1` [Compound 8a, 6-amino-3,3′,5-trimethoxy-4-methyl-[1,1′-biphenyl]-2-ol], the “cell survival dose/response curve” value in the data set on MOLM-13 cell line and in the data set with HL60 cell line was “rapid decrease in cell survival” in each case.

As for `COc1c(C)c(OC)c(OC(C)=O)c(-c2ccccc2)c1NC(C)=O` [Compound 9, 6-acetamido-3,5-dimethoxy-4-methyl-(1,1′-biphenyl)-2-yl acetate], in the data set with MOLM-13 cell line, the cytotoxicity / %-viability entry is “weaker cytotoxicity” and the “cell survival dose/response curve” value is on record as “more limited dose/response curves”. For the same molecule, in the data set with HL60 cell line, the cytotoxicity / %-viability entry was “weaker cytotoxicity” and the “cell survival dose/response curve” value is listed as “more limited dose/response curves”.

Consider `COc1cccc(-c2c(NC(C)=O)c(OC)c(C)c(OC)c2OC(C)=O)c1` [Compound 9a, 6-acetamido-3,3′,5-trimethoxy-4-methyl-(1,1′-biphenyl)-2-yl acetate], for which the “cell survival dose/response curve” value in the data set with MOLM-13 cell line and in the data set on HL60 cell line was “more limited dose/response curves” throughout.

Consider `COc1c(C)c(OC)c2c(c1OC(C)=O)c1ccccc1n2C(C)=O` [Compound 10, 9-acetyl-1,3-dimethoxy-2-methyl-9H-carbazol-4-yl acetate], for which the cytotoxicity / %-viability result with MOLM-13 cell line and with HL60 cell line was “did not show any influence on the cytotoxicity” in each case. Besides, the “cell survival dose/response curve” value with MOLM-13 cell line and in the data set with HL60 cell line was “rapid decrease in cell survival” each time.

As for `COc1c(C)c(OC)c2[nH]c3ccccc3c2c1O` [Compound 11, 1,3-dimethoxy-2-methyl-9H-carbazol-4-ol], in the data set with MOLM-13 cell line, the cytotoxicity / %-viability result is “major cytotoxicity” and the “cell survival dose/response curve” value was “rapid decrease in cell survival”. Further, in the data set on HL60 cell line, the cytotoxicity / %-viability result is reported as “major cytotoxicity” and the “cell survival dose/response curve” value is “rapid decrease in cell survival”.

For the molecule `COC1=C(C)C(=O)c2[nH]c3ccccc3c2C1=O` [Compound 12, 3-methoxy-2-methyl-1-carbazole-1,4 (9H)-dione], the “cell survival dose/response curve” value in the data set on MOLM-13 cell line and in the data set with HL60 cell line was “more limited dose/response curves” each time.

On to `COC1=C(C)C(C)(O)c2[nH]c3ccccc3c2C1=O` (stereo not drawn) [Compound 13, 1-hydroxy-3-methoxy-1,2-dimethyl-1,9-dihydro-4H-carbazol-4-one, reference compound], for which, in the data set with MOLM-13 cell line, the cytotoxicity / %-viability entry is “not to exhibit cytotoxicity” and the “cell survival dose/response curve” value is given as “more limited dose/response curves”. In the data set with HL60 cell line, the cytotoxicity / %-viability result is reported as “not to exhibit cytotoxicity” and the “cell survival dose/response curve” value is reported as “more limited dose/response curves”.
